{
  "source": "patent US6759238B1",
  "about": "“Multidrug resistance associated proteins and uses thereof” (priority 1999, dated 2004)",
  "key": {"CEM-SS cells [1]": {"tested_on": "CEM-SS cells", "assay": "Phosphorylation of AZT", "format": "in vitro ADME, human", "settings": "10 μM AZT", "experimental": "(§1) The appearance of the phosphorylated metabolites into the medium was also determined in both the cell lines. AZTDP and AZTTP were not detected in the medium of either CEM-SS or CEM-r1 cells. However, the amount of AZTMP accumulated in the media was approximately 3-fold higher in CEM-r1 cells than in CEM-SS cells.\n(§2) The cartridges were conditioned with 10% MeOH Ammonium Phosphate Buffer (5 mM, pH 4.0). The sample was loaded onto the column. […] AZTDP and AZTTP were eluted with 10% MeOH Ammonium Phosphate Buffer (700 mm, pH 4.6)."}, "CEM-r1 cells [2]": {"tested_on": "CEM-r1 cells", "assay": "Phosphorylation of AZT", "format": "in vitro ADME, human", "settings": "for Extracellular Concentration / Intracellular Concentration: CEM-r1, 10 μM AZT", "experimental": "as §1, §2"}, "[3]": {"assay": "Efflux of [3H]-AZT and its metabolites", "format": "in vitro ADME, human", "design": "half-life: dose or concentration left out as unconfirmed", "settings": "human, CEMss, read-out: Efflux kinetics, AZTMP t½", "experimental": "(§3) Cells were incubated for 60 minutes with [^3H]-AZT (10 μM) after which they were washed free of radioactivity, resuspended in drug-free medium and the intracellular and the extracellular concentration of [^3H]-AZT were measured. […] At least 80% of the AZTMP present intracellularly in CEM-r1 cells was excreted into the medium in 10 minutes (FIG. 6A).\n(§4) Referring to Table 6 in greater detail, efflux kinetics were studied. Transport analysis of PMEA was conducted as previously described^48. […] The cells were then washed free of radioactivity and then incubated in drug-free medium in the presence of sodium azide and 2-deoxy-D-glucose. At various time periods, the amount of intracellular AZTMP was measured. As reported in Table 6, depletion of ATP led to an inhibition of AZTMP efflux (i.e. a significant accumulation of AZTMP in the CEM-r1 cells but not in the CEM-SS cells).\n(§5) The suspension was centrifuged at 3,300 rpm for 7 minutes. All but 1 ml of the supernatant medium containing the free drug was aspirated. […] The cell pellet was then washed with ice-cold medium and resuspended at the same concentration in drug-free medium and maintained at 37° C. […] An aliquot of the top layer (cell free media) was analyzed for the quantitation of AZT and its metabolites."}, "CEM-SS cells [4]": {"tested_on": "CEM-SS cells", "assay": "Efflux of [3H]-AZT and its metabolites", "format": "in vitro ADME, human", "design": "half-life: dose or concentration left out as unconfirmed", "settings": "CEMss, no treatment, after loading with [3H]-AZT", "experimental": "as §3, §4, §5"}, "[5]": {"assay": "Efflux of [3H]-AZT and its metabolites", "format": "in vitro ADME, human", "settings": "human, read-out: Efflux kinetics, AZTMP t½", "experimental": "as §3, §4, §5"}, "CEM-r1 cells [6]": {"tested_on": "CEM-r1 cells", "assay": "Efflux of [3H]-AZT and its metabolites", "format": "in vitro ADME, human", "experimental": "as §3, §4, §5"}, "[7]": {"tested_on": "AZTMP efflux in CEM-SS cells", "assay": "Effect of inhibitors of ATP-coupled transporters on AZTMP efflux", "format": "cell-based, human", "settings": "PGA1 50 μM, DPM 10 μM", "experimental": "(§6) The suspension was centrifuged at 3,300 rpm for 7 minutes. All but 1 ml of the supernatant medium containing the free drug was aspirated. […] The cell pellet was then washed with ice-cold medium and resuspended at the same concentration in drug-free medium and maintained at 37° C."}, "[8]": {"tested_on": "AZTMP efflux in CEM-r1 cells", "assay": "Effect of inhibitors of ATP-coupled transporters on AZTMP efflux", "format": "cell-based, human", "settings": "PGA1 50 μM, DPM 10 μM", "experimental": "as §6"}, "[9]": {"settings": "CEMr-1, no treatment, after loading with [3H]-AZT"}},
  "note": "“And” between values parts separate entries of the source, which are not always exact repeats. Equal entries are not always repeated. Where two headings read alike, the source gives them in different places.",
  "data": [
    {"molecule": "Cc1cn([C@H]2C[C@H](N=[N+]=[N-])[C@@H](COP(=O)(O)O)O2)c(=O)[nH]c1=O", "note": "[AZTMP, azido-thymidine monophosphate]", "values": [
      {"measurement": "Extracellular Concentration", "setting": "CEM-SS cells [1]; 4 hours", "value": 46, "unit": "nM"},
      {"measurement": "Intracellular Concentration", "setting": "CEM-SS cells [1]; 4 hours", "value": 89, "unit": "µM"},
      {"measurement": "Extracellular Concentration", "setting": "CEM-SS cells [1]; 8 hours", "value": 151, "unit": "nM"},
      {"measurement": "Intracellular Concentration", "setting": "CEM-SS cells [1]; 8 hours", "value": 95, "unit": "µM"},
      {"measurement": "Extracellular Concentration", "setting": "CEM-SS cells [1]; 24 hours", "value": 555, "unit": "nM"},
      {"measurement": "Intracellular Concentration", "setting": "CEM-SS cells [1]; 24 hours", "value": 50, "unit": "µM"},
      {"measurement": "Amount accumulated in the media, CEM-r1 vs CEM-SS", "setting": "CEM-r1 cells [2]; 10 μM AZT", "value": "approximately 3 fold"},
      {"measurement": "Extracellular Concentration", "setting": "CEM-r1 cells [2]; 4 hours", "value": 132, "unit": "nM"},
      {"measurement": "Intracellular Concentration", "setting": "CEM-r1 cells [2]; 4 hours", "value": 13.6, "unit": "µM"},
      {"measurement": "Extracellular Concentration", "setting": "CEM-r1 cells [2]; 8 hours", "value": 420, "unit": "nM"},
      {"measurement": "Intracellular Concentration", "setting": "CEM-r1 cells [2]; 8 hours", "value": 15.9, "unit": "µM"},
      {"measurement": "Extracellular Concentration", "setting": "CEM-r1 cells [2]; 24 hours", "value": 1716, "unit": "nM"},
      {"measurement": "Intracellular Concentration", "setting": "CEM-r1 cells [2]; 24 hours", "value": 12.3, "unit": "µM"},
      {"measurement": "half-life at 10 μM", "setting": "[3]; Azide + Deoxyglucose", "value": 16.3, "unit": "min"},
      {"measurement": "half-life", "setting": "[3]; no treatment, after loading with [3H]-AZT", "value": 17.5, "unit": "min"},
      {"measurement": "Efflux kinetics, AZTMP t½", "setting": "CEM-SS cells [4]", "value": 17.1, "unit": "min"},
      {"measurement": "half-life at 10 μM", "setting": "[5]; CEMr-1, Azide + Deoxyglucose", "value": 18.1, "unit": "min"},
      {"measurement": "half-life at 10 μM", "setting": "[5]; [9]", "value": 4.5, "unit": "min"},
      {"measurement": "Intracellular AZTMP excreted into the medium", "setting": "CEM-r1 cells [6]; CEM-r1, in 10 minutes", "value": "At least 80%"},
      {"measurement": "Efflux kinetics, AZTMP t½", "setting": "CEM-r1 cells [6]; [9]", "value": "4 min and 4.3 min"}
    ]},
    {"molecule": "CCCCC[C@H](O)/C=C/[C@H]1C=CC(=O)[C@@H]1CCCCCCC(=O)O", "note": "[PGA1, prostaglandin A1]", "values": [
      {"measurement": "Effect on efflux of AZTMP", "setting": "[7]", "value": "no effect"},
      {"measurement": "Effect on efflux of AZTMP", "setting": "[8]", "value": "markedly inhibited"}
    ]}
  ]
}
